Assay results reported in patent US12465603B2, “Phthalazinone based modulators for the treatment of disease” (Soley Therapeutics, Inc., priority 2022, dated 2025).

Assays:
[1] = tested on: PA1 (ECACC, 90013101) cells; assay: Cell viability assay (Cell Titre Glo, 72 hours) in PA1 cells; assay type: cell-based; details: Homo sapiens, PA-1
In short: (§1)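 10-point dose response, top final concentration 30 μM, 1 in 3 dilutions; 5000 cells per well added directly to compound. Incubated 72 hours at 37° C, 5% CO2, then viability read by Cell Titre Glo luminescence and IC50 curves fitted.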

[2] = tested on: A2058 (ATCC, CRL-11147) cells; assay: Cell viability assay (Cell Titre Glo, 72 hours) in A2058 cells; assay type: cell-based; details: Homo sapiens
In short: as §1

Row | SMILES | IC50 [1] [µM] | IC50 [2] [µM]
1 | Cn1nc(C(=O)N2CCN(c3cnccc3C3CC3)CC2)c2cc(F)ccc2c1=O [Compound 232, 4-(4-(4-cyclopropylpyridin-3-yl)piperazine-1-carbonyl)-6-fluoro-2-methylphthalazin-1(2H)-one] | ≤ 1 | ≤ 1
2 | Cn1nc(C(=O)N2CCN(c3ccncc3F)CC2)c2ccccc2c1=O [Compound 18] | > 20 | > 20
3 | COc1cc(C#N)ncc1N1CCN(C(=O)c2nn(C)c(=O)c3ccccc23)CC1 [Compound 24] | > 20 | > 20
4 | Cn1nc(C(=O)N2CCN(c3cccc(S(C)(=O)=O)c3)CC2)c2ccccc2c1=O [Compound 69] | 1 to 10 | 1 to 10
5 | CCn1nc(C(=O)N2CCN(c3ncccc3C3CC3)CC2)c2ccccc2c1=O [Compound 108] | ≤ 1 | ≤ 1
6 | COc1ccccc1N1CCN(C(=O)c2nn(C)c(=O)c3ncccc23)CC1 [Compound 183] | 10 to 20 | > 20
7 | CC(C)n1nc(C(=O)N2CCN(c3ccccc3)CC2)c2ccccc2c1=O [Compound 4] | 10 to 20 | > 20
8 | Cn1nc(C(=O)N2CCN(c3nccc4sccc34)CC2)c2ccccc2c1=O [Compound 194] | 1 to 10 | 10 to 20
9 | CCn1nc(C(=O)N2CCN(c3cncnc3OC)CC2)c2ccccc2c1=O [Compound 83] | ≤ 1 | 1 to 10
10 | Cn1nc(C(=O)N2CCN(c3cccn4ccnc34)CC2)c2ccccc2c1=O [Compound 192] | 1 to 10 | 10 to 20
11 | COc1ccnc(N2CCN(C(=O)c3nn(C)c(=O)c4ccccc34)CC2)n1 [Compound 72] | 1 to 10 | 1 to 10
12 | CC(C)c1cncc(N2CCN(C(=O)c3nn(C)c(=O)c4ccccc34)CC2)c1 [Compound 204] | > 20 | > 20
13 | O=C(c1nn(CC(F)F)c(=O)c2ccccc12)N1CCN(c2ccccc2)CC1 [Compound 7] | > 20 | > 20
14 | COc1c(F)cncc1N1CCN(C(=O)c2nn(C)c(=O)c3ccc(F)cc23)CC1 [Compound 233] | ≤ 1 | 1 to 10
15 | Cn1nc(C(=O)N2CCN(c3cccc4c3OC(F)(F)O4)CC2)c2ccccc2c1=O [Compound 80] | ≤ 1 | ≤ 1
16 | CCn1nc(C(=O)N2CCN(c3cc(C)ccn3)CC2)c2ccccc2c1=O [Compound 110] | 1 to 10 | 1 to 10
17 | Cn1nc(C(=O)N2CCN(c3cccc4nccn34)CC2)c2ccccc2c1=O [Compound 231, 4-(4-(imidazo[1,2-a]pyridin-5-yl)piperazine-1-carbonyl)-2-methylphthalazin-1(2H)-one] | > 20 | > 20
18 | CCn1nc(C(=O)N2CCN(c3cc(F)ccn3)CC2)c2ccccc2c1=O [Compound 109] | 1 to 10 | 1 to 10
19 | Cn1nc(C(=O)N2CCN(c3cc(Cl)cc(Cl)c3)CC2)c2cnccc2c1=O [Compound 218] | ≤ 1 | ≤ 1
20 | Cn1nc(C(=O)N2CCN(c3ccccc3)CC2)c2cnccc2c1=O [Compound 170, 2-methyl-4-(4-phenylpiperazine-1-carbonyl)pyrido[3,4-d]pyridazin-1-one] | > 20 | > 20
21 | CCn1nc(C(=O)N2CCN(c3ccccc3Cl)CC2)c2ccccc2c1=O [Compound 105] | ≤ 1 | ≤ 1

Row | SMILES | IC50 [1] [µM] | IC50 [2] [µM]
22 | Cn1nc(C(=O)N2CCN(c3cncnc3C3CC3)CC2)c2ccccc2c1=O [Compound 40] | 1 to 10 | 1 to 10
23 | CCn1nc(C(=O)N2CCN(c3ccncc3C3CC3)CC2)c2ccccc2c1=O [Compound 115] | ≤ 1 | ≤ 1
24 | CCn1nc(C(=O)N2CCN(c3ccccc3OCC(F)(F)F)CC2)c2ccccc2c1=O [Compound 147] | 1 to 10 | 1 to 10
25 | Cc1cc(C#N)cc(N2CCN(C(=O)c3nn(C)c(=O)c4ccc(F)cc34)CC2)c1 [Compound 235] | ≤ 1 | ≤ 1
26 | COc1ccccc1C1(C)CCN(C(=O)c2nn(C)c(=O)c3ccccc23)CC1 [Compound 249, 4-(4-(2-methoxyphenyl)-4-methylpiperidine-1-carbonyl)-2-methylphthalazin-1(2H)-one] | 1 to 10 | 1 to 10
27 | Cn1nc(C(=O)N2CCN(c3ccnc(C4CC4)c3)CC2)c2ccccc2c1=O [Compound 76] | 1 to 10 | 10 to 20
28 | CCn1nc(C(=O)N2CCN(c3ncncc3C)CC2)c2ccccc2c1=O [Compound 113] | > 20 | > 20
29 | Cn1nc(C(=O)N2CCN(c3cc(Cl)cc(C#N)c3)CC2)c2cnccc2c1=O [Compound 223] | ≤ 1 | 1 to 10
30 | Cn1nc(C(=O)N2CCN(c3ccc4nccn4c3)CC2)c2ccccc2c1=O [Compound 202] | > 20 | > 20
31 | CCn1nc(C(=O)N2CCN(c3ncc(C#N)cc3C)CC2)c2ccccc2c1=O [Compound 91] | > 20 | > 20
32 | CC(C)Oc1cc(F)ccc1N1CCN(C(=O)c2nn(C)c(=O)c3ccccc23)CC1 [Compound 59] | 1 to 10 | 1 to 10
33 | Cc1cc(C)nc(N2CCN(C(=O)c3nn(C)c(=O)c4ccccc34)CC2)n1 [Compound 64] | 1 to 10 | > 20
34 | CCn1nc(C(=O)N2CCN(c3ccc(C)s3)CC2)c2ccccc2c1=O [Compound 125] | 10 to 20 | > 20
35 | CCn1nc(C(=O)N2CCN(c3cccnc3OC)CC2)c2ccccc2c1=O [Compound 143] | ≤ 1 | ≤ 1
36 | CCn1nc(C(=O)N2CCN(c3nnccc3OC)CC2)c2ccccc2c1=O [Compound 94] | 1 to 10 | 10 to 20
37 | Cn1nc(C(=O)N2CCN(c3ccccc3C3CC3)CC2)c2cnccc2c1=O [Compound 177] | ≤ 1 | ≤ 1
38 | CN1CCc2cccc(N3CCN(C(=O)c4nn(C)c(=O)c5ccccc45)CC3)c21 [Compound 79] | 10 to 20 | 10 to 20
39 | COc1cccnc1N1CCN(C(=O)c2nn(C)c(=O)c3ccc(F)cc23)CC1 [Compound 169] | ≤ 1 | 1 to 10
40 | CCn1nc(C(=O)N2CCN(c3cnccc3OC)CC2)c2cc(F)ccc2c1=O [Compound 236, 2-ethyl-6-fluoro-4-(4-(4-methoxypyridin-3-yl)piperazine-1-carbonyl)phthalazin-1(2H)-one] | ≤ 1 | ≤ 1
41 | Cn1nc(C(=O)N2CCN(c3cccc(C#N)c3)CC2)c2cnccc2c1=O [Compound 219] | 1 to 10 | 1 to 10
42 | Cn1nccc1N1CCN(C(=O)c2nn(C)c(=O)c3ccccc23)CC1 [Compound 227] | > 20 | > 20

Row | SMILES | IC50 [1] [µM] | IC50 [2] [µM]
43 | Cn1nc(C(=O)N2CCN(c3cc(F)cc(OC(F)(F)F)c3)CC2)c2ccccc2c1=O [Compound 197] | ≤ 1 | 1 to 10
44 | CCn1nc(C(=O)N2CCN(c3ccccc3OC3CC3)CC2)c2ccccc2c1=O [Compound 132] | ≤ 1 | 1 to 10
45 | COc1ccncc1N1CCN(C(=O)c2nn(C)c(=O)c3ccc(Cl)cc23)CC1 [Compound 246, 6-chloro-4-(4-(4-methoxypyridin-3-yl)piperazine-1-carbonyl)-2-methylphthalazin-1(2H)-one] | ≤ 1 | 1 to 10
46 | CCn1nc(C(=O)N2CCN(c3ncccc3C(F)(F)F)CC2)c2ccccc2c1=O [Compound 136] | 1 to 10 | 10 to 20
47 | COc1ccccc1C1=CCN(C(=O)c2nn(C)c(=O)c3ccccc23)CC1 [Compound 247, 4-(4-(2-methoxyphenyl)-1,2,3,6-tetrahydropyridine-1-carbonyl)-2-methylphthalazin-1(2H)-one] | ≤ 1 | ≤ 1
48 | CCn1nc(C(=O)N2CCN(c3ncc(F)cc3C)CC2)c2ccccc2c1=O [Compound 87] | > 20 | > 20
49 | CCn1nc(C(=O)N2CCN(c3cccc(OC)n3)CC2)c2ccccc2c1=O [Compound 84] | ≤ 1 | ≤ 1
50 | CCn1nc(C(=O)N2CCN(c3cc(F)c(F)cc3OC)CC2)c2ccccc2c1=O [Compound 144] | ≤ 1 | ≤ 1
51 | Cn1nc(C(=O)N2CCN(c3cncc(C(F)F)c3)CC2)c2ccccc2c1=O [Compound 63] | > 20 | > 20
52 | COc1cc(F)ccc1N1CCN(C(=O)c2nn(C)c(=O)c3ccncc23)CC1 [Compound 174] | 1 to 10 | 10 to 20
53 | CCn1nc(C(=O)N2CCN(c3ccnc4ccoc34)CC2)c2ccccc2c1=O [Compound 95] | ≤ 1 | ≤ 1
54 | CCn1nc(C(=O)N2CCN(c3cc(OC)ccn3)CC2)c2ccccc2c1=O [Compound 85] | 1 to 10 | 1 to 10
55 | Cn1nc(C(=O)N2CCN(c3ccccn3)CC2)c2ccccc2c1=O [Compound 31] | > 20 | > 20
56 | CCOc1ccccc1N1CCN(C(=O)c2nn(CC)c(=O)c3ccccc23)CC1 [Compound 134] | ≤ 1 | ≤ 1
57 | COc1cncc(N2CCN(C(=O)c3nn(C)c(=O)c4ccccc34)CC2)c1 [Compound 35] | 1 to 10 | 1 to 10
58 | Cn1nc(C(=O)N2CCN(c3ccnc4cnn(C)c34)CC2)c2ccccc2c1=O [Compound 193] | > 20 | > 20
59 | Cn1nc(C(=O)N2CCN(c3ccc4c(c3)OCC4)CC2)c2ccccc2c1=O [Compound 51] | 10 to 20 | > 20
60 | CCn1nc(C(=O)N2CCN(c3c(C)cnc4ccccc34)CC2)c2ccccc2c1=O [Compound 123] | > 20 | > 20
61 | CCn1nc(C(=O)N2CCN(c3ccccc3C3CC3)CC2)c2ccccc2c1=O [Compound 103] | ≤ 1 | ≤ 1
62 | Cn1nc(C(=O)N2CCN(c3ccccc3)CC2)c2ccncc2c1=O [Compound 171, 3-methyl-1-(4-phenylpiperazine-1-carbonyl)pyrido[3,4-d]pyridazin-4-one] | > 20 | > 20
